# In the supplement of paper PMC11208160:
# Assay: recombinant UMI read abundance after kanamycin selection (control-corrected) (log10(CPM+1)); higher = more efficient recombination; extreme values may be limits of the assay; sequences stand for … in AGTGCAGAGAAAATCGGCCAGTTTTCTCTGCCTGCAGTCCGCATGCCGTGGGACCCCTTGGGTTCTAACCTGTTGCCTAGATTTATGCAGCGGACTGCCTTTCTCCCAAAGTGATAAACCGG…AGGTTGGTTTCACT; site = the 11-nt donor
# How it was run: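 Sequenced counts of recombinant UMIs were turned into CPM, averaged across replicates and scaled with control-derived factors. The reported figure is log10(CPM+1). Those UMIs, each 12 nt long, tagged donor and donor-binding-loop pairs on a plasmid with a promoterless kanamycin gene, screened as a pool in Escherichia coli with IPTG (0.07 mM) plus kanamycin or without selection.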
# 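Further: IS621 bridge recombinase in Escherichia coli cells against a fixed T5 target plasmid.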
row,Sequence,recombinant UMI read abundance (log10)
1,CCGCACACATGGACCGGTTTTCCCGGTAATCCGTATTTGGT (site CCGCACACTAC),0.509
2,CCGCACACATGGACCGGTTTTCCCGGTAATCCGTATTTGTA (site CCACACACTTA),0.587
3,CCGCACACATGGACCGGTTTTCCCGGTAATCCGTATTTGTA (site CCCCACACTTA),0.0105
4,CCGCACACATGGACCGGTTTTCCCGGTAATCCGTATTTGTA (site CCGCACACTTA),0.895
5,CCGCACACATGGACCGGTTTTCCCGGTAATCCGTATTTGTA (site CCTCACACTTA),0.00457
6,CCGCATGCATGGACCGGTTTTCCCGGTAATCCGTATTTGCT (site CCGCATGCTAG),0.291
7,CCGCATTCATGGACCGGTTTTCCCGGTAATCCGTATTTGCG (site CCGCATTCTCG),0.57
8,CCGCCAGCATGGACCGGTTTTCCCGGTAATCCGTATTTGGG (site CCGCCAGCTCC),0
9,CCGCCTCCATGGACCGGTTTTCCCGGTAATCCGTATTTGGC (site CCGCCTCCTGC),0
10,CCGCGCACATGGACCGGTTTTCCCGGTAATCCGTATTTGTA (site CCGCGCACTTA),0.0144
11,CCGCGCACATGGACCGGTTTTCCCGGTAATCCGTATTTGTT (site CCGCGCACTAA),0.0199
12,CCGCGTACATGGACCGGTTTTCCCGGTAATCCGTATTTGTT (site CCGCGTACTAA),0.0381
13,CCGGAAACATGGACCGGTTTTCCCGGTAATCCGTATTTGCA (site CAGGAAACTTG),0
14,CCGGAAACATGGACCGGTTTTCCCGGTAATCCGTATTTGCA (site CCGGAAACTTG),0.135
15,CCGGAAACATGGACCGGTTTTCCCGGTAATCCGTATTTGCA (site CGGGAAACTTG),0
16,CCGGAAACATGGACCGGTTTTCCCGGTAATCCGTATTTGCA (site CTGGAAACTTG),0
17,CCGGAGTCATGGACCGGTTTTCCCGGTAATCCGTATTTGCC (site CAGGAGTCTGG),0
18,CCGGAGTCATGGACCGGTTTTCCCGGTAATCCGTATTTGCC (site CCGGAGTCTGG),1.55
19,CCGGAGTCATGGACCGGTTTTCCCGGTAATCCGTATTTGCC (site CGGGAGTCTGG),0

row,Sequence,recombinant UMI read abundance (log10)
1,CCGGAGTCATGGACCGGTTTTCCCGGTAATCCGTATTTGCC (site CTGGAGTCTGG),0
2,CCGGCAGCATGGACCGGTTTTCCCGGTAATCCGTATTTGCA (site CCGGCAGCTTG),0.255
3,CCGGCAGCATGGACCGGTTTTCCCGGTAATCCGTATTTGTA (site CCGGCAGCTTA),0.665
4,CCGGTACCATGGACCGGTTTTCCCGGTAATCCGTATTTGAG (site CCGGTACCTCT),0
5,CCGGTAGCATGGACCGGTTTTCCCGGTAATCCGTATTTGTG (site CCGATAGCTCA),0
6,CCGGTAGCATGGACCGGTTTTCCCGGTAATCCGTATTTGTG (site CCGCTAGCTCA),0.0271
7,CCGGTAGCATGGACCGGTTTTCCCGGTAATCCGTATTTGTG (site CCGGTAGCTCA),0.303
8,CCGGTAGCATGGACCGGTTTTCCCGGTAATCCGTATTTGTG (site CCGTTAGCTCA),0.0101
9,CCGGTCCCATGGACCGGTTTTCCCGGTAATCCGTATTTGTC (site CCGGTCCCTGA),0
10,CCGGTTACATGGACCGGTTTTCCCGGTAATCCGTATTTGCT (site CCGATTACTAG),0.782
11,CCGGTTACATGGACCGGTTTTCCCGGTAATCCGTATTTGCT (site CCGCTTACTAG),0
12,CCGGTTACATGGACCGGTTTTCCCGGTAATCCGTATTTGCT (site CCGGTTACTAG),0
13,CCGGTTACATGGACCGGTTTTCCCGGTAATCCGTATTTGCT (site CCGTTTACTAG),0
14,CCGTAAGCATGGACCGGTTTTCCCGGTAATCCGTATTTGTG (site CCGTAAGCTCA),0.404
15,CCGTAAGCATGGACCGGTTTTCCCGGTAATCCGTATTTGTG (site CCGTCAGCTCA),0.0145
16,CCGTAAGCATGGACCGGTTTTCCCGGTAATCCGTATTTGTG (site CCGTGAGCTCA),0.011
17,CCGTAAGCATGGACCGGTTTTCCCGGTAATCCGTATTTGTG (site CCGTTAGCTCA),0.0113
18,CCGTAGTCATGGACCGGTTTTCCCGGTAATCCGTATTTGGG (site CCGTAGTCTCC),0.0263
